Data as given in patent publication US20120309790A1, “TREATMENT OF DERM[…] CONDITIONS” (SANOFI, priority 2010, published 2012).
Values joined by “and” are separate entries in the source; they are usually repeats but may differ in a detail not shown here. Equal values may be shown once. Where a name gives a salt, the structure may show the parent alone.

Test system: Ascaris suum antigen-induced wheal
Assay: Ascaris suum antigen-induced intradermal wheal formation in nonhuman primates
Format: in vivo, Macaca fascicularis
Conditions: for Mean wheal area: mean of 12 animals, 15 minutes, A suum alone 119.626; for Individual calculated wheal area: single animals, intradermal, 15 minutes after injection
Description: The species used for this study were male, nonhuman primates, Macaca fascicularis 5 to 10 years of age. Each animal was identified by a unique number tattoo located on its chest. The group size was 12. Animals were supplied by Charles River and housed under conditions outlined in the NIH Guide for Care and Use of Laboratory Animals in compliance with the USDA Laboratory Animal Welfare Act, in a fully accredited AAALAC facility. Purina (product 5038) primate chow was fed twice daily, supplemented with fruit, vegetables and treats. Water was available ad libitum.
Compound A formulated in a solution containing 0.22 mg/ml A sum (Ascaris sum) in phosphate buffered saline was dosed at 0.004, 0.0004, 0.00004, and 0.000004 mg per injection site at a volume of 40 μl.
Diphenhydramine hydrochloride was formulated in a solution containing 0.22 mg/ml A suum in phosphate buffered saline. Diphenhydramine hydrochloride was dosed at 0.4 mg per injection site at a volume of 40 μl.
Ascaris suum extract (part number XPB33X1A5, lot 30575) was supplied by Greer Laboratories. The extract was reconstituted with distilled water to a final concentration of 10 mg/ml of stock solution.
Animals were anesthetized by an intramuscular (IM) injection of 5 to 10 mg/kg ketamine mixed with 0.5 to 0.75 mg/kg medetomidine. The animal's chest and abdomen were shaved and wiped clean with alcohol. The following injections (40 μl each) were given intradermally: • PBS (phosphate buffered saline) • Ascaris 8.8×10^−3 mg/ml • Ascaris 8.8×10^−3 mg/ml+0.4 mg Diphenhydramine hydrochloride • Ascaris 8.8×10^−3 mg/ml+0.004 mg SAR160719 • Ascaris 8.8×10^−3 mg/ml+0.0004 mg SAR160719 • Ascaris 8.8×10^−3 mg/ml+0.00004 mg SAR160719 • Ascaris 8.8×10^−3 mg/ml+0.000004 mg SAR160719
The reactions in the form of a wheal were measured 15 minutes after injection using vernier calipers. The wheal was measured along two diameters (D1 and D2) perpendicular to one another. The area of the wheal was calculated using the formula: […]
Mixed model with repeated measures was used to analyze the data, with wheal size for different treatment groups as the repeated measures, treatment as fixed effects, and animal as random effect. The correlation structure was selected to be compound symmetry. Robust covariance estimate was used to obtain the results.

Row | SMILES | Antigen-induced wheal formation (co-injected with A suum intradermally, measured 15 minutes after injection) | Mean wheal area (A suum + 0.000004 mg per site) [mm^2] | Mean wheal area (A suum + 0.00004 mg per site) [mm^2] | Mean wheal area (A suum + 0.0004 mg per site) | Mean wheal area (A suum + 0.004 mg per site) | Individual calculated wheal area (A suum 8.8 × 10^−3 mg + 0.000004 mg per injection site) | Individual calculated wheal area (A suum 8.8 × 10^−3 mg + 0.00004 mg per injection site) | Individual calculated wheal area (A suum 8.8 × 10^−3 mg + 0.0004 mg per injection site) | Individual calculated wheal area (A suum 8.8 × 10^−3 mg + 0.004 mg per injection site) | Mean wheal area (A suum + 0.4 mg per site, hydrochloride) | Individual calculated wheal area (A suum 8.8 × 10^−3 mg + 0.4 mg per injection site, hydrochloride)
1 | COCCn1cc(C(=O)N2CCC(c3cc(CN)ccc3F)CC2)c2c(OC(F)(F)F)ccc(F)c21 [Compound A, [4-(5-Aminomethyl-2-fluorophenyl)piperidine-1-yl][7-fluoro-1-(2-methoxyethyl)-4-trifluoromethoxy-1H-indol-3-yl]methanone] | reduced antigen-induced wheal formation | 105.510 | 101.157 | 97.680±8.012 mm^2 and 97.680 mm^2 | 102.390±9.645 mm^2 and 102.390 mm^2 | 110.302 mm^2 and 84.145 mm^2 and 132.750 mm^2 and 121.754 mm^2 and 86.601 mm^2 and 104.788 mm^2 and 134.800 mm^2 and 133.773 mm^2 and 85.779 mm^2 and 66.485 mm^2 and 115.005 mm^2 and 89.932 mm^2 | 67.209 mm^2 and 86.601 mm^2 and 168.586 mm^2 and 90.774 mm^2 (2×) and 106.610 mm^2 (2×) and 81.723 mm^2 and 107.527 mm^2 and 93.325 mm^2 and 79.337 mm^2 and 134.800 mm^2 | 112.171 mm^2 and 110.302 mm^2 and 158.388 mm^2 and 101.190 mm^2 and 103.882 mm^2 and 107.527 mm^2 and 87.428 mm^2 and 90.774 mm^2 and 100.300 mm^2 and 48.404 mm^2 and 56.752 mm^2 and 95.046 mm^2 | 67.938 mm^2 and 115.005 mm^2 and 159.506 mm^2 and 91.621 mm^2 and 84.960 mm^2 (2×) and 131.730 mm^2 and 88.259 mm^2 and 164.014 mm^2 and 99.415 mm^2 and 65.047 mm^2 and 76.211 mm^2 |  | 
2 | CN(C)CCOC(c1ccccc1)c1ccccc1 [Diphenhydramine hydrochloride, reference compound] |  |  |  |  |  |  |  |  |  | 84.196±7.364 mm^2 and 84.196 mm^2 | 76.211 mm^2 and 116.914 mm^2 and 147.430 mm^2 and 62.219 mm^2 and 73.148 mm^2 and 82.527 mm^2 and 58.773 mm^2 and 67.209 mm^2 and 78.550 mm^2 and 65.764 mm^2 and 87.428 mm^2 and 94.183 mm^2
